Reference: US20240299457A1, “METHODS FOR TREATING DISEASE ASSOCIATED WITH SENESCENCE” (Steadman Philippon Research Institute, priority 2019, published 2024)
Entries after “also recorded” stand apart in the source; their conditions may differ.

Tests used:
[1] = Losartan administration; cited from earlier work
[2] = system: senescent ADSCs (β-galactosidase, C12FDG); experiment: C12FDG staining of senescence-associated β-galactosidase with flow cytometry in culture-expanded ADSCs; format: cell-based, human
Description: Cells were treated with 100 nM of bafilomycin A1 for 1 hour at 37° C. and 5% CO2. Next, 33 μM C12FDG was added and incubated for 2 hours. Thus, cells were stained with the fluorescent senescence-associated marker C12FDG, collected, and tested for senescence using flow cytometry after 50 μM Fisetin treatment. 3 replicates were used per treatment. The InCyte software was used, and fluorescent gating was determined using unstained control cells.
(§1) To determine Fisetin's senolytic ability in vitro, based on the data from the preceding example, the 50 μM Fisetin concentration was used to treat YF and OF cells. Senescent cells were quantified by immunofluorescence using ? -H2AX and H3K9. Similarly, YM and OM cells were quantified using C12FDG for flow cytometry. C12FDG reacts with beta-galactosidase, a biomarker for senescence, to produce a fluorogenic substrate to be detected and quantified by flow cytometry.
Cells were seeded in triplicate for each group using previously described culture methods and seeding densities. After adhering overnight, the media was changed. […] After culturing in normal growth media for another 24 hours, the media was collected for SASP quantification or the cells were processed for C12FDG or SAHF staining, as described in the preceding example.

Zmpste24−/− mice [3] = experiment: Micro-CT analysis of bone in progeroid Z24−/− mice given senolytic drugs; format: in vivo, mouse
Description: (§2) Adult progeroid Z24−/− mice were administered senolytic drugs via oral gavage (150 μl volume) starting at 2.5 to 3.0 months of age. D/Q (5 mg/kg: 50 mg/kg in 10% PEG400/5.0% DMSO) was given as a single dose at 2.5 months or multi-dose at 2.5, 3.0, 3.5, 4.0, 4.5, and 5.0 months. Both single and multi-dose DQ mice were sacrificed at 5 months. FIS (100 mg/kg in 90% PEG400/10.0% ethanol) treated mice were given a total of 4 weekly doses of drug starting at 3.0 months of age, then sacrificed at 4.0 months of age. For 17-DMAG treatments (10 mg/kg, 1% DMSO-PBS), mice were treated 3 times per week starting at 2 months of age then sacrificed at 4 months of age.
For Fisetin treatments, mice were imaged using the explore Locus Utra Pre-Clinical CT Scanner (GE Healthcare, London, ON) through the pre-Clinical CT Core Facility with the following acquisition settings: 140 kVp, 22 mA with 16 s rotation/exposure. Non-cardiac gated CT images were acquired at all-time points. Simple back projections were obtained from the […] image reconstruction and exported as DICOM images. Image analysis was performed using the OsiriX software. Qualitative analysis of the bones was performed in 2D and 3D reconstructions using OsiriX. MicroView imaging software was also used for the quantitative analysis of the bone mineral density.
(§3) Z24−/−mice were treated with Fisetin weekly for 4 weeks (100 mg/kg) starting at 3 months of age then sacrificed at 4 months of age. 4 months was chosen as a sacrifice time (versus 5 months) given the more advanced pathology that occurred at 5 months, a time when therapies might have negligible effects like seen in D+Q treated animals.

mice OA models = conditions: cited from earlier work
[4] = system: SASP factors IL-6, IL-8, MCP-1; experiment: SASP factor quantification in ADSC culture media (Milliplex); format: cell-based, human; conditions: after Fisetin treatment, media 24 hours
Description: For SASP detection, the media were collected after incubating with the cells for 24 hours, centrifuged at 2,000×g for ten minutes, transferred to new microcentrifuge tubes, and stored at −80° C. until testing. The Human Adipocyte Milliplex kit using the EMD Millipore Milliplex instrument was used to quantify the SASPs.
Cells were seeded in triplicate for each group using previously described culture methods and seeding densities. After adhering overnight, the media was changed. For the untreated group normal ADSC growth media was used (DMEM:F-12 with 10% FBS and 1% penicillin/streptomycin), and for the treated group 50 μM Fisetin was added. Cells were treated for 24-hours, after which the media was changed back to normal growth media for all groups. After culturing in normal growth media for another 24 hours, the media was collected for SASP quantification or the cells were processed for C12FDG or SAHF staining, as described in the preceding example.
Within the R1 region of FIGS. 4B-4D, cells positive for C12FDG are noted by their respective peaks. […] In all groups, a decrease was indicated. […] 3 replicates were used for each treatment. (FIG. 6).

Zmpste24−/− mice [5] = experiment: Transcript levels of senescence marker and SASP factors in tissues of Z24−/− mice; format: in vivo, mouse; conditions: 100 mg/kg weekly
Description: as §2, §3

[6] = system: senescence-associated heterochromatin foci (SAHF) in ADSCs; experiment: Immunofluorescence of senescence-associated heterochromatin foci (H3K9, γ-H2AX) in ADSCs; format: cell-based, human; conditions: 50 μM Fisetin
Description: Specifically, the cells were maintained in T-75 culture flasks using normal growth media (DMEM:F-12 with 10% FBS and 1% penicillin/streptomycin). At 70-90% confluency, the cells were passaged and reseeded in the flasks at a 1:4 dilution. At their respective testing passage number, cells were plated into chamber slides for SAHF staining at a density of 5,000 cells/cm^2. Cells were seeded in triplicate for each group and incubated to adhere overnight. The following day, cells were fixed with cold 4% paraformaldehyde and stained with the H2AX antibody using a 1:150 dilution and the H3K9 antibody using a 1:250 dilution. DAPI was also used to stain the nuclei. Five images per well and three wells per group were imaged using the Nikon Eclipse Ni-U microscope. Cells positive for the H2AX and H3K9 antibodies were quantified using the ImageJ software.
Each cell type was given 3 replicate wells, and each well was imaged 6 times, for a total of 18 images per group. Using an Image J program, the number of cells positive for each marker was quantified.
as §1, with “C12FDG reacts with beta-galactosidase, a biomarker for senescence, to produce a fluorogenic substrate to be detected and quantified by flow cytometry.” left out

senescent CD3+ T-cells = experiment: Senescent peripheral blood CD3+ T-cells before and after oral Fisetin, C12FDG flow cytometry (person); format: in vivo, human; conditions: CD3+ cells after Fisetin treatment, 100 mg per day for 45 days
Description: Whole blood was collected from a subject into 50 ml Syringe containing ACD-A and set on a rocker. SepMate tubes (Stem Cell Technologies) were prepared with 15 ml Lymphoprep in a sterile environment. 10 ml whole blood were aliquoted into 50 ml conical tubes. 500 μl (50 μl/ml) RosetteSep (Stem Cell Technologies) was added to 10 mL sample of blood. For other blood samples, total PBMCs were collected as described below without T-cell enrichment for comparison. The mixture was incubated 10 min at room temperature (RT). An equal volume dilution medium (DM-sterile PBS and 2% FBS) was added to the sample and mixed gently. The diluted sample was slowly added to the SepMate tube containing Lymphoprep density gradient medium. The mixture was centrifuged at 1200×g for 10 minutes, brake on. The enriched cells were collected by pouring supernatant into a new tube. […]
Senescent cells were treated with Fisetin and then further characterized using flow cytometry (as described in Example 4, above). Peripheral Blood CD3+ T-cells from a person before & after Fisetin treatment (100 mg per day for 45 days) were evaluated for senescence and for senescent cell populations. Before treatment, the subject measured about 29% senescent cells, and after treatment, the subject measured about 4% senescent cells (data not shown).

low passage (<p4) ADSCs = experiment: CellTiter 96 AQueous Cell Proliferation Assay (cell toxicity); format: cell-based, human
Description: Banked ADSCs isolated from person three, person four, person two, and person one were purchased and cultured with normal growth media (DMEM/F:12, 10% FBS, and 1% penicillin/streptomycin).
Fisetin was added to growth media and treated on cells for 24 hours. Following treatment, the media was changed to normal growth media for 24 hours before being used for cell toxicity, immunofluorescence, or flow cytometry.
The CellTiter 96® AQueous Cell Proliferation Assay was used to determine the toxicity of 50 μM, 25 μM, and 1 μM Fisetin on low passage (<p4) cells. Cells were seeded at 40,000 cells/well in a 12-well plate. After adhering overnight, the cells were treated with 50 μM, 25 μM, and 1 μM of Fisetin for 24 hours. After treatment, the media was changed back to normal growth media for another 24 hours. The cells were then treated with the CellTiter 96 AQueous Cell Proliferation Assay following the manufacturer's protocol. Values are relative to untreated, control cells.

C12FDG+ T-Cells = experiment: Bright and dim C12FDG+ T-cells in five patients treated with Fisetin; format: in vivo, human
Description: A certified phlebotomist used a 19-gauge butterfly needle to perform a standard venipuncture from the antecubital (AC) area, forearm or hand vein. Approximately 35 mL of blood was drawn into one 30 cc syringe (with ACD-A) and one 5 cc (without ACD-A) syringe. […] For total PBMCs and enriched T-Cells, SepMate™ tubes (Stem Cell Technologies) were used following manufactures protocol with Lymphoprep™ (Stem Cell Technologies) gradient centrifugation. Specifically, in separate tubes, CD3+ T-Cells were enriched using the RosetteSep™ commercial kit following manufactures instructions (Stem Cell Technologies #15021). A portion of cells (enriched T-cells and total PBMCs) were stained with 30 μM C12FDG in general culture media supplemented with 10% FBS and analyzed with flow cytometry (Guava EasyCyte, Luminex). To assess the percent, number, and concentration (cell/ml) of senescent CD3+ T-cells and PBMCs, settings were adjusted first using an unstained control (i.e., cells not treated with C12FDG). First, thresholds were set for FSC and SSC to catch cellular events. Next the green channel gain controls were set so that the background events fall between the 1st and second decade. […] Samples were ran in triplicate with water-only runs every 5 wells. Five patients with an age range from 56-77 years were treated with Fisetin at 100 mg/day for 30-45 days.

[7] = treated versus untreated Z24−/− mice

Compound: CCCCc1nc(Cl)c(CO)n1Cc1ccc(-c2ccccc2-c2nn[nH]n2)cc1 [Losartan]
- microfracture for cartilage repair [1]: enhance

Compound: O=c1c(O)c(-c2ccc(O)c(O)c2)oc2cc(O)ccc12 [Fisetin, 2-(3,4-dihydroxyphenyl)-3,7-dihydroxychromen-4-one]
- % cells positive for C12FDG (senescence) ([2]; 50 μM Fisetin, 24 hours, passages 6, 8, 10): significantly reduced; also recorded: reduced at every passage
- count of the peak representing senescent cells (histogram) ([2]; cells treated with 50 μM Fisetin): about 20
- bone density loss (Zmpste24−/− mice [3]; 100 mg/kg weekly for 4 weeks from 3 months of age, micro-CT): significantly attenuate
- protective effects in bone (Zmpste24−/− mice [3]; Z24−/− mice, oral gavage): effective
- Hounsfield unit (HU) intensity (Zmpste24−/− mice [3]; [7]): Significant higher scores
- bone mineral density (BMD) (Zmpste24−/− mice [3]; [7]): Significant higher scores
- specific bone surface (BS/BV) (Zmpste24−/− mice [3]; [7]): Significant higher scores
- cartilage destruction (mice OA models): decreased
- subchondral bone plate thickness (mice OA models): decreased
- synovitis (mice OA models): relieved
- IL-6 concentration [4]: decrease
- IL-8 concentration [4]: decrease
- MCP-1 concentration [4]: decrease
- transcript levels of IL-6 (Zmpste24−/− mice [5]): reduced
- transcript levels of TGF-β (Zmpste24−/− mice [5]): reduced
- transcript levels of p16INK4a (Zmpste24−/− mice [5]): reduced
- number of cells positive for H3K9 ([6]; OF and YF cells, passages 4 and 18): significantly reduced in all groups
- γ-H2AX positive cells ([6]; low passage OF, low passage YF, high passage YF cells): reduced
- Senescent cell concentration (senescent CD3+ T-cells): 7397 +/− 3191 cells/mL
- Total senescent cells (senescent CD3+ T-cells): 191 +/− 73
- toxicity to the health of low passage ADSCs (low passage (<p4) ADSCs; 50 μM): not toxic
- percentage of viable cells among treatments (low passage (<p4) ADSCs; 50 μM, 25 μM, 1 μM, YF, OF, YM, OM, relative to untreated control cells): no significant difference
- toxicity to ADSCs (low passage (<p4) ADSCs; 1-50 μM, 24 hours treatment): non-toxic
- ADSC viability and proliferation (low passage (<p4) ADSCs; Fisetin exposure): not hindered
- reduction in the percent of C12FDG+ cells (dim, early stage) (C12FDG+ T-Cells; 100 mg/day for 30-45 days): 1-2 fold
- bright cells, mean (C12FDG+ T-Cells; P19, treated/post-treated): 1.15%
- dim cells, mean (C12FDG+ T-Cells; P19, treated/post-treated): 26.70%
- bright cells, mean (C12FDG+ T-Cells; P50, treated/post-treated): 0.60%
- dim cells, mean (C12FDG+ T-Cells; P50, treated/post-treated): 27.55%
- reduction in bright C12FDG+ T-cells (C12FDG+ T-Cells; patients with high baseline bright cells, 100 mg/day for 30-45 days): 10-20 fold
